# In ChEMBL document CHEMBL1158861, “Zanhasaponins A and B, antiphospholipase A2 saponins from an antiinflammatory extract of Zanha africana root bark” (J Nat Prod, 1997):
# Assays:
# [1] = molecular target: Acidic phospholipase A2 2 (Naja naja, UniProt P15445); test: Inhibition of Naja Naja PLA2
# [2] = molecular target: Acidic phospholipase A2 2 (Naja naja) (UniProt P15445); test: Inhibition of Naja Naja PLA2 at […]
# [3] = test system: Mus musculus; test: Antiinflammatory activity against TPA-induced ear edema in Swiss mouse assessed as reduction in ear thickness at 0.05 mg/ear after 10 days; format: functional; parameters: scale not given: the % may be the effect or the level left
# [4] = species: Mus musculus; test: Effect on oxazolone-induced delayed type hypersensitivity in Swiss mouse assessed as reduction in ear thickness at 0.05 mg/ear after 24 hrs; format: functional; parameters: scale not given: the % may be the effect or the level left
# [5] = species: Mus musculus; test: Effect on oxazolone-induced delayed type hypersensitivity in Swiss mouse assessed as reduction in ear thickness at 0.05 mg/ear after 48 hrs; format: functional; parameters: scale not given: the % may be the effect or the level left
# [6] = species: Mus musculus; test: Effect on oxazolone-induced delayed type hypersensitivity in Swiss mouse assessed as reduction in ear thickness at 0.05 mg/ear after 72 hrs; format: functional; parameters: scale not given: the % may be the effect or the level left
# [7] = species: Mus musculus; test: Effect on oxazolone-induced delayed type hypersensitivity in Swiss mouse assessed as reduction in ear thickness at 0.05 mg/ear after 96 hrs; format: functional; parameters: scale not given: the % may be the effect or the level left
# [8] = species: Mus musculus; test: Effect on oxazolone-induced delayed type hypersensitivity in Swiss mouse assessed as reduction in ear thickness at 0.05 mg/ear after 102 hrs; format: functional; parameters: scale not given: the % may be the effect or the level left
# [9] = test system: Mus musculus; test: Antiinflammatory activity against Arachidonic acid-induced ear edema in Swiss mouse assessed as reduction in ear thickness at 2 mg/ear; format: functional; parameters: scale not given: the % may be the effect or the level left
# [10] = molecular target: Acidic phospholipase A2 2 (Naja naja) (UniProt P15445); settings: 1.3 nM
# Description: Inhibition of Naja Naja PLA2 at 1.3 nM
# Acidic phospholipase A2 2, sequence (P15445 whole entry): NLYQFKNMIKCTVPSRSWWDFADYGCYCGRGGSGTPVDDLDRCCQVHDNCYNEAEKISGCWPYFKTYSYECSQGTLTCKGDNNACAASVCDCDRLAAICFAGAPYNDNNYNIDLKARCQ
# Acidic phospholipase A2 2 (Naja naja), sequence (P15445 whole entry): as above
structure (smiles),measurement,setting,value
C[C@@H]1O[C@@H](O[C@H]2[C@H](OC(=O)[C@]34CCC(C)(C)C[C@H]3C3=CC[C@@H]5[C@@]6(C)C[C@H](O)[C@H](O[C@@H]7O[C@H](C(=O)O)[C@@H](O)[C@H](O)[C@H]7O)[C@@](C)(C(=O)O)[C@@H]6CC[C@@]5(C)[C@]3(C)C[C@H]4O)O[C@@H](C)[C@H](O)[C@H]2O)[C@H](O)[C@H](O)[C@H]1O [ZANHASAPONIN A],IC50,[1],470 µM
C[C@@H]1O[C@@H](O[C@H]2[C@H](OC(=O)[C@]34CCC(C)(C)C[C@H]3C3=CC[C@@H]5[C@@]6(C)C[C@H](O)[C@H](O[C@@H]7O[C@H](C(=O)O)[C@@H](O)[C@H](O)[C@H]7O)[C@@](C)(C(=O)O)[C@@H]6CC[C@@]5(C)[C@]3(C)C[C@H]4O)O[C@@H](C)[C@H](O)[C@H]2O)[C@H](O[C@@H]2OC[C@@H](O)[C@H](O[C@@H]3OC[C@@H](O)[C@H](O)[C@H]3O)[C@H]2O)[C@H](O)[C@H]1O,inhibition,[2],30%
C[C@@H]1O[C@@H](O[C@H]2[C@H](OC(=O)[C@]34CCC(C)(C)C[C@H]3C3=CC[C@@H]5[C@@]6(C)C[C@H](O)[C@H](O[C@@H]7O[C@H](C(=O)O)[C@@H](O)[C@H](O)[C@H]7O)[C@@](C)(C(=O)O)[C@@H]6CC[C@@]5(C)[C@]3(C)C[C@H]4O)O[C@@H](C)[C@H](O)[C@H]2O)[C@H](O[C@@H]2OC[C@@H](O)[C@H](O)[C@H]2O)[C@H](O)[C@H]1O [ZANHASAPONIN B],IC50,[1],440 µM
C[C@@H]1C[C@H]2[C@@H]3CCC4=CC(=O)C=C[C@]4(C)[C@@]3(F)[C@@H](O)C[C@]2(C)[C@@]1(O)C(=O)CO [DEXAMETHASONE],Activity,[3],81%
same,Activity,[4],76%
same,Activity,[5],89%
same,Activity,[6],93%
same,Activity,[7],81%
same,Activity,[8],84%
CC(Cc1ccc(O)c(O)c1)C(C)Cc1ccc(O)c(O)c1 (configuration not stated) [NORDIHYDROGUAIARETIC ACID],Activity,[9],50%
CO[C@H]1[C@H](O)[C@@H](O)[C@H](O)[C@H](O)[C@H]1O,inhibition,[10],45%
CO[C@H]1[C@H](O)[C@@H](O)[C@@H](O)[C@H](O)[C@@H]1O [METHYLINOSITOL],IC50,[1],1920 µM
